Data as given in patent US20180078482A1, “COMPOSITION CONTAINING THEASAPOGENOL DERIVATIVE AS ACTIVE INGREDIENT” (AMOREPACIFIC CORPORATION, priority 2015, published 2018).

Columns and labels:
5α-reductase = target: T1, 5α-reductase (Homo sapiens, UniProt P31213); assay: Inhibition of 5α-reductase activity ([14C]testosterone to [14C]dihydrotestosterone conversion in HEK293-5αR2 cells); format: cell-based; conditions: 2 μg/ml, 2 hours at 37° C.; for Conversion rate (%): radioactivity to DHT area/total radioactivity
T1 construct: 3×FLAG; expressed in transfected cells; host or cells: HEK293
T1 sequence (P31213 1-254): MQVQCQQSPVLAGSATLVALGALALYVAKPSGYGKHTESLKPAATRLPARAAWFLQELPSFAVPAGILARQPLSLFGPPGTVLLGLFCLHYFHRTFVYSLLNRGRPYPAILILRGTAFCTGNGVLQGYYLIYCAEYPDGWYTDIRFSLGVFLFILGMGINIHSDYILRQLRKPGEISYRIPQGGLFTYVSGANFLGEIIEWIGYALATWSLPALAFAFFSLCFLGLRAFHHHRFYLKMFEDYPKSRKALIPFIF
Experimental: The 5α-reductase activity inhibiting effect was measured by the ratio of [^14C]testosterone converted into [^14C]dihydrotestosterone in HEK293-5αR2 cells. HEK293 cells were transfected with p3×FLAG-CMV-5αR2 and incubated in a 24-well plate at a density of 2.5×10^5 cells per well (Park et al., 2003, JDS Vol. 31, pp. 91-98). The next day, the medium was replaced with a fresh medium containing an enzyme substrate and an inhibitor, and 0.05 μCi [^14C]testosterone (Amersham Pharmacia biotech, UK) was used as the substrate of the medium. In order to confirm the degree of inhibition, 2 μg/ml of theasapogenol derivative obtained in Preparation Example 1 was added to the medium as a test substance, and the medium was incubated in a 5% CO2 incubator at 37° C. for 2 hours.
Thereafter, the incubated mediums were collected and testosterone was extracted with 800 μl of ethyl acetate. The upper organic solvent layer was separated and dried, and the residue was dissolved again in 50 μl of ethyl acetate and developed on the silica plastic sheet kieselgel 60 F254 by using ethyl acetate-hexane (1:1) as a developing solvent. After the plastic sample was dried in the air, a bath system was used to measure the amounts of isotopes, the dried plastic sheet and an x-ray film were placed in a bath cassette together, and the amounts of isotopes in testosterone and dihydrotestosterone remaining on the film after one week were measured.
(1) Conversion rate: radioactivity to DHT area/total radioactivity
(2) Inhibition rate: 100×(conversion rate of control group−conversion rate of sample)/conversion rate of control group

Fibroblasts = assay: Promotion of collagen biosynthesis (procollagen type (I) ELISA in fibroblasts); format: cell-based; conditions: 2 μg/ml, 24 hours, untreated group set to 100
Experimental: The collagen biosynthesis promoting effect of the theasapogenol derivative obtained in Preparation Example 1 was measured in comparison with TGF-beta of a positive control.
Fibroblasts were seeded by 10^5 in one well of a 24-well plate and incubated until they grew up to about 90%. This was incubated in serum-free DMEM medium for 24 hours and treated with 2 μg/ml of each of the theasapogenol derivative obtained in Preparation Example 1 and TGF-beta, and incubated in a CO2 incubator for 24 hours. Thereafter, the supernatant was taken out and subjected to the observation using the ELISA kit (procollagen type (I)) to determine whether the procollagen increased or decreased. The results are presented in Table 1, and the collagen synthesizing ability was compared by setting the collagen synthesizing ability of the untreated group to 100.

[1] = 100×(conversion rate of control group−conversion rate of sample)/conversion rate of control group

Row | Molecule | Inhibition rate (%) (5α-reductase; [1]) | Conversion rate (%) (5α-reductase) | Collagen synthesizing ability (%) (Fibroblasts) | inhibition at 2 µg/mL (5α-reductase; [1])
1 | 21-O-angeloyltheasapogenol E3 [Preparation Example 1] | 38% | 30% | 145.1 ± 12.5% | 
2 | CC(C)(C)NC(=O)[C@H]1CC[C@H]2[C@@H]3CC[C@H]4NC(=O)C=C[C@]4(C)[C@H]3CC[C@]12C [Finasteride, reference compound] |  | 27% |  | 44%
